What all share (assay type): cell-based, human
In one data set the test system is NRP-2 protein. The data set can be described thus: NRP-2 expression after siRNA transfection (flow cytometry, C9 antibody). Conditions: Colo320 cells transfected with pFiv H1/U6puro siRNA-NRP-2, from D7. On the procedure: The Colo320 line naturally expressing neuropilin-2 at its membrane surface was transfected with the plasmid pFiv H1/U6puro siRNA-NRP-2 using the Effectene® kit, Qiagen). In parallel, Colo320 cells were transfected with a control siRNA (siRNA-ctrl) provided with the pFiv H1/U6puro SiRNA expression vector kit (System Biosciences). The Colo320^siRNA-NRP-2 and Colo320^siRNA-ctrl transfected cells were then selected at D2 with 2 μg/ml of puromycin. The efficiency of the transfection was evaluated from D7 onwards by labelling with a murine anti-human NRP-2 IgG antibody (Clone C9, Santa Cruz Biotechnology) by flow cytometry: the results obtained are represented in FIG. 3.
For each of the panels of FIG. 3, the number of events (the number of cells) is indicated on the y-axis, the fluorescence intensity (corresponding to the label of the cells with the anti-NRP-2 antibody C9) is represented on the x-axis. The distribution curves in black lines represent the results obtained after labelling with a control antibody, the distribution curves in grey lines represent the results obtained after labelling with the C9 antibody.
In general terms: Flow cytometry measures light scatter and fluorescence of single cells or particles in a stream.

The subject of a further data set is p53 protein. The data set can be described thus: p53 expression in Colo320 cells expressing siRNA-NRP-2 (flow cytometry, Western blotting). The note with it: Colo320^siRNA-NRP-2 versus Colo320^siRNA-ctrl. The text has this:
FIG. 7 represents the results obtained by flow cytometry for the HT29-ctrl (panel A), HT29-NRP-2 (panel B), Colo320^siRNA-ctrl (panel C) and Colo320^siRNA-NRP-2 (panel D) cells labelled with an anti-p53 antibody. The curves in black lines represent the results of the labelling with a control antibody, and the curves in grey lines represent the results of the labelling with the anti-p53 antibody. The number of events (the number of cells) is indicated on the y-axis, the fluorescence intensity (corresponding to the labelling of the cells with the anti-p53 antibody) is represented on the x-axis.
The protein extracts of the HT29-ctrl, HT29-NRP-2, Colo320^siRNA-ctrl and Colo320^siRNA-NRP-2 lines were also analysed by Western blotting using an anti-p53 antibody. After lysis of the cell lines, migration of the protein pellets obtained on a 10% polyacrylamide gel (10 μg of protein per well, standardized relative to the immunoblotting of actin), and then transfer onto a PVDF membrane, the PVDF membrane was incubated overnight with the p53 primary antibody (BD Biosciences, mouse anti-human p53) diluted to 1/500. The membranes, after washing in TBS/0.1% Tween20, were incubated for 1 hour with an anti-mouse HRP secondary antibody diluted to 1/12 500. The results are represented in FIG. 8.

Another data set has as its system Colo320 cells. The data set can be described thus: MTT proliferation assay in the presence of siRNA-NRP-2. The note with it: Colo320^siRNA-NRP-2 versus Colo320^siRNA-ctrl; 24, 48 and 72 hours. As for the experimental part: The MTT proliferation assay is based on the reduction of 3-(4,5-dimethylthiazol-2-yl)-2,5-diphenyltetrazolium bromide), by the mitochondrial succinate dehydrogenase of active live cells, to give formazan. The coloration intensity (OD) induced by this reaction is proportional to the number of live cells present during the assay, and to the metabolic activity thereof.
4000 HT29ctrl, HT29-NRP-2, Colo320^siRNA-ctrl or Colo320^siRNA-NRP-2 cells were seeded into a 96-well Maxisorp plate, in 100 μl of DMEM medium containing 10% of inactivated FCS. The assay was carried out in triplicate. At 24, 48 and 72 hours, respectively, 10 μl of MTT at 5 mg/ml were added to each well. After 2 hours of incubation at 37° C., 5% CO2, 200 μl of DMSO were added to each well after shaking, and the OD was read at 570 nm using a spectrophotometer. The results of these experiments are represented in FIG. 4.
FIGS. 4.A and 4.B are histograms representing the results obtained in the proliferation assay carried out respectively with the HT29ctrl and HT29-NRP-2 cells and with the Colo320^siRNA-ctrl and Colo320^siRNA-NRP-2 cells. The coloration intensity (the optical density “OD”) corresponding to the production of formazan by the cells is indicated on the y-axis, and the times at which the viability tests were carried out are indicated on the x-axis. […]
(Formazan colour is commonly taken as a measure of viable cells.)

As for “siRNA-NRP-2: double-stranded siRNA directed against the NRP-2 transcripts, sense SEQ ID No. 31, antisense SEQ ID No. 32, expressed from plasmid (sense GGCUGGAAGUCAGCACUAAUUU; antisense AUUAGUGCUGACUUCCAGCCUU)”, the “expression of the NRP-2 protein” value in the data set on NRP-2 protein is “efficiently inhibited”. Moreover, in the data set with p53 protein, the “p53 expression (Western blotting)” value was “strongly expressed” and the “p53 expression (flow cytometry)” value is “restoration of p53 expression”. Besides, the “proliferation and survival (OD at 570 nm)” value in the data set with Colo320 cells is reported as “OD decreases”.

The record behind these values is patent publication US8722043B2, “Induction of p53 expression by neutralization of neuropilin-2 for the treatment of cancers” (Diaclone, priority 2008, dated 2014).
